Test results taken from the supplement of paper PMC10307832.

Legend:
Test in all cases: relative viability (nuclei count vs DMSO), 5 days (fraction); higher = more cells survive
[1] = compound: C/C(=N\NC(=S)N1CCC1)/C2=CC=CC=N2 + CC(=O)Nc1cccc(-n2c(=O)n(C3CC3)c(=O)c3c(Nc4ccc(I)cc4F)n(C)c(=O)c(C)c32)c1 [Trametinib] (partner 0.02 µM)
Procedure, shortened: (§1)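 Relative viability equals treated-well nuclei counts divided by vehicle-well nuclei counts. Counts came from 4× images of lung cancer cell lines grown in 1536-well plates for 5 days after pin-tool dosing on the day after seeding. Dosing used one drug alone or a fixed anchor-drug dose plus five library-drug doses (not always all listed) in √10 steps, and values are medians of duplicate plates.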

[2] = compound: C/C(=N\NC(=S)N1CCC1)/C2=CC=CC=N2 + O=C(c1cc(Cc2n[nH]c(=O)c3ccccc23)ccc1F)N1CCN(C(=O)C2CC2)CC1 [Olaparib] (partner 8 µM)
Procedure, shortened: as §1

[3] = compound: C/C(=N\NC(=S)N1CCC1)/C2=CC=CC=N2 + CS(=O)(=O)CCNCc1ccc(-c2ccc3ncnc(Nc4ccc(OCc5cccc(F)c5)c(Cl)c4)c3c2)o1 [Lapatinib] (partner 2 µM)
Procedure, shortened: as §1

[4] = compound: C/C(=N\NC(=S)N1CCC1)/C2=CC=CC=N2 + N=C(N)NC(=N)NCCc1ccccc1 [Phenformin] (partner 250 µM)
Procedure, shortened: as §1

Cell Line	relative viability ([1]; first compound 0.05 µM)	relative viability ([1]; first compound 0.1581 µM)	relative viability ([1]; first compound 0.5 µM)	relative viability ([1]; first compound 1.581 µM)	relative viability ([1]; first compound 5 µM)	relative viability ([2]; first compound 0.05 µM)	relative viability ([2]; first compound 0.1581 µM)	relative viability ([2]; first compound 0.5 µM)	relative viability ([2]; first compound 1.581 µM)	relative viability ([2]; first compound 5 µM)	relative viability ([3]; first compound 0.05 µM)	relative viability ([3]; first compound 0.1581 µM)	relative viability ([3]; first compound 0.5 µM)	relative viability ([3]; first compound 1.581 µM)	relative viability ([3]; first compound 5 µM)	relative viability ([4]; first compound 0.05 µM)	relative viability ([4]; first compound 0.1581 µM)	relative viability ([4]; first compound 0.5 µM)	relative viability ([4]; first compound 1.581 µM)	relative viability ([4]; first compound 5 µM)
HARA	0.322	0.11	0.193	0.109	0.102	0.433	0.192	0.13	0.119	0.13	0.102	0.115	0.155	0.0859	0.0828	0.0726	0.0701	0.0872	0.047	0.0649
NCI-H2126	0.299	0.574	0.189	0.183	0.23	0.344	0.889	0.186	0.191	0.17	0.242	0.272	0.249	0.236	0.241	0.396	0.407	0.364	0.316	0.381
LXF-289	0.284	0.553	0.206	0.221	0.176	0.382	0.647	0.175	0.176	0.0913	0.322	0.278	0.275	0.24	0.14	0.22	0.203	0.202	0.2	0.0793
NCI-H460	0.0177	0.0199	0.0221	0.0121	0.0173	0.0648	0.0442	0.0577	0.0429	0.0274	0.0117	0.0152	0.017	0.015	0.0086	0.0303	0.0322	0.0348	0.0156	0.0113
NCI-H1395	0.425	0.388	0.327	0.381	0.389	0.321	0.285	0.373	0.364	0.39	0.314	0.424	0.355	0.315	0.412	0.279	0.349	0.364	0.307	0.389
NCI-H2170	0.684	0.869	0.186	0.174	0.109	0.487	0.575	0.161	0.124	0.124	0.24	0.2	0.203	0.192	0.188	0.263	0.26	0.22	0.222	0.153
NCI-H2009	0.108	0.133	0.102	0.0932	0.111	0.0968	0.101	0.125	0.154	0.123	0.141	0.16	0.151	0.161	0.0978	0.125	0.185	0.221	0.154	0.184
